Experimental findings from ChEMBL document CHEMBL1156733, “Structure-activity relationship studies on a series of piperazinebenzylalcohols and their ketone and amine analogs as melanocortin-4 receptor ligands” (Bioorg Med Chem Lett, 2008) are described below.

The target of series [1] is T1, Melanocortin receptor 4 (Homo sapiens, UniProt P32245). Kind of series: Antagonist activity at human MC4 receptor expressed in cells assessed as inhibition of alpha-MSH-stimulated cAMP production. The class given is functional, cell-based. (In general: Cyclic AMP is a second messenger, typically raised through Gs and lowered through Gi signalling.)
A short description of series [2]: AUC in rat at 10 mg/kg, po. Format: ADME, organism-based. Details: dose 10 mg/kg, route oral. Particulars: plasma.
Series [3] can be described thus: Ratio of drug level in brain to plasma in rat at 5 mg/kg, iv after 1 hr. Format: ADME, organism-based. Details: dose 5 mg/kg, route intravenous.
Another series concerns Brain. Kind of series: Drug level in rat brain rat at 5 mg/kg, iv. The class given is ADME, organism-based. Details: dose 5 mg/kg, route intravenous. Particulars: in vivo.
For the next series, the target named is Melanocortin receptor 3 (Homo sapiens, UniProt P41968). Kind of series: Binding affinity to MC3 receptor.
Series [4] has as its target T1, Melanocortin receptor 4.
Description: Binding affinity to human MC4 receptor
Series [5] can be described thus: Metabolic stability assessed as intrinsic clearance in human liver microsomes. Format: ADME, Microsome. For orientation: Liver microsomes are a subcellular fraction often used to study metabolism.
For another series, the target named is Melanocortin receptor 5 (Homo sapiens, UniProt P33032). Kind of series: Binding affinity to MC5 receptor.
Series [6] is described as follows: Lipophilicity, log D of the compound. The conditions noted are these: octanol/water. Format: physicochemical.
Series [7] in a line: Volume of distribution in rat at 5 mg/kg, iv. The conditions noted are these: in vivo. On the set-up: dose 5 mg/kg, route intravenous. Format: ADME, organism-based.
Series [8] is described as follows: Half life in rat at 5 mg/kg, iv. Particulars: in vivo. Format: ADME, organism-based. On the set-up: dose 5 mg/kg, route intravenous.
Series [9] can be described thus: Oral bioavailability in rat at 10 mg/kg. The class given is ADME, organism-based. The conditions noted are these: in vivo.
A short description of series [10]: Plasma clearance in rat at 5 mg/kg, iv. The class given is ADME, organism-based. On the set-up: dose 5 mg/kg, route intravenous.
The subject of series [11] is Melanocortin receptor 1 (Homo sapiens). Kind of series: Inhibition of human MC1 receptor at 10 uM.

Melanocortin receptor 3, sequence (P41968 whole entry): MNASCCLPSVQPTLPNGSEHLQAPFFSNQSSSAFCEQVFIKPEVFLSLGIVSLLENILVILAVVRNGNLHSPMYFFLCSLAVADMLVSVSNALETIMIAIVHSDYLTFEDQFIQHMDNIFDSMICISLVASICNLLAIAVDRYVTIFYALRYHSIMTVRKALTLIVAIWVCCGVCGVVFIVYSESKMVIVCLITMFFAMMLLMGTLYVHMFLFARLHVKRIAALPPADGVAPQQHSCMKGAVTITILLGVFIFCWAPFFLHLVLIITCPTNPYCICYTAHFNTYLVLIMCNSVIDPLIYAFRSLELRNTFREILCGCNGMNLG
T1 sequence (P32245 whole entry): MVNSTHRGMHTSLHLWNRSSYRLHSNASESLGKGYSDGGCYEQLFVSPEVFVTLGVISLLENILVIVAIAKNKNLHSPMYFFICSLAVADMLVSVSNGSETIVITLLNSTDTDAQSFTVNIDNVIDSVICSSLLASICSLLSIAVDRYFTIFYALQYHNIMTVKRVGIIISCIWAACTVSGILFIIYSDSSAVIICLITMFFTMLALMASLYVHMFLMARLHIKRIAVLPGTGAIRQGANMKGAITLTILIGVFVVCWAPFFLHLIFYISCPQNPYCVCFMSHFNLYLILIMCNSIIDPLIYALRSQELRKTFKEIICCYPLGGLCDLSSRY
Melanocortin receptor 5, sequence (P33032 whole entry): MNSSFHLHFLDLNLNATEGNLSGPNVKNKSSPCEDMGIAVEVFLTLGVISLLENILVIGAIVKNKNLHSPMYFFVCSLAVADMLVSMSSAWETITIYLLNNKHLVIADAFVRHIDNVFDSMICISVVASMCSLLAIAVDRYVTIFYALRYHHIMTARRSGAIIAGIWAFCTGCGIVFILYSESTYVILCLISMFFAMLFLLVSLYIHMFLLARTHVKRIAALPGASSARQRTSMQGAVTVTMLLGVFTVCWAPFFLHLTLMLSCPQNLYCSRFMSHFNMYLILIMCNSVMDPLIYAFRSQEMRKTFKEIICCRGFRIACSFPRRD

As a reminder, the IC50 is the concentration that gives 50% inhibition. A word on the AUC: it is concentration integrated over time. Broadly, the Kp is tissue or fluid exposure divided by exposure in the circulation. As a reminder, the Ki is a dissociation constant, usually derived from enzyme kinetics or from competition with a known ligand. The low end stands for higher affinity, the high end for lower affinity. What is called CLint scaled is the rate of metabolic loss divided by the concentration. The term logD denotes the decadic logarithm of the distribution of all forms, ionised or not, between an organic phase and buffer at a given pH. Higher therefore signals higher lipophilicity. The term Vd denotes a proportionality between amount in the body and measured concentration, not a real space. Read a high Vd as wide distribution into tissue. As usually defined, the half-life is how long it takes for the measured level to halve. The bioavailability is the share of a dose that reaches the circulation, judged against a reference dose that is usually intravenous. As a reminder, the clearance is a measure of how efficiently the substance is removed, as volume per time. A high value points to efficient removal. Take `CC(C)CC(O)c1ccccc1N1CCN(C(=O)[C@@H](Cc2ccc(Cl)cc2Cl)NC(=O)CCN)CC1` (some centres not stated): at Melanocortin receptor 4 [1], the IC50 amounted to 260 nM. Besides, the exposure (AUC) in series [2] stood at 30 ng·h/mL. The partition ratio (Kp) at 1 h in series [3] amounted to 0.53. In the series with Brain, this compound had a Drug uptake of 117 ng/g. The inhibition constant (Ki) at Melanocortin receptor 3 was found to be 1700 nM; at Melanocortin receptor 4 [4], 8.1 nM; on Melanocortin receptor 5, 970 nM. Besides, in [5], the CLint scaled turned out to be 14.7 mL/min/kg. Besides, in series [6], the logD amounted to 2.2. In [7], the Vd came out at 42.3 L/kg. The half-life in series [8] is 7.6 h. Also, the bioavailability in series [9] is 1.2%. This compound yielded a clearance in series [10] of 64.5 mL/min/kg.

One may read the inhibition as the share of the control response that was lost under treatment. A low value points to little suppression. Take `CC(C)CC(=O)c1ccccc1N1CCN(C(=O)[C@@H](Cc2ccc(Cl)cc2Cl)NC(=O)CCN)CC1`: the IC50 on Melanocortin receptor 4 [1] was found to be 650 nM. The figures for the Ki on Melanocortin receptor 3, on Melanocortin receptor 4 [4] and on Melanocortin receptor 5 were 2300 nM, 24 nM and 330 nM, respectively. For the same compound, in [5], the CLint scaled was found to be 18.4 mL/min/kg. In series [6], the logD is 2.4. In [11], the inhibition was determined as 42%.

For the compound `CC(C)CC(N)c1ccccc1N1CCN(C(=O)[C@@H](Cc2ccc(Cl)cc2Cl)NC(=O)CCN)CC1` (some centres not stated), the IC50 at Melanocortin receptor 4 [1] was 250 nM. Besides, in series [3], the concentration ratio (Kp) at 1 h came out at 1.8. In addition, the Drug uptake in the series on Brain came to 245 ng/g. Besides, the Ki on Melanocortin receptor 3 is 870 nM; at Melanocortin receptor 4 [4], 3.2 nM; at Melanocortin receptor 5 it was 540 nM. For the same compound, in series [5], the CLint scaled worked out at 3.6 mL/min/kg. This compound registered a logD in series [6] of 0.15. The compound further had a Vd in series [7] of 41.5 L/kg. In series [8], this compound gave a half-life of 7.1 h. Also, in series [9], the bioavailability was 2.1%. The compound further had a clearance in series [10] of 68 mL/min/kg.
